This is an account of results in patent US20230210999A1, “TARGETED PROTEASE DEGRADATION (TED) PLATFORM” (EUBULUS BIOTHERAPEUTICS INC., priority 2020, published 2023).

Bounds are passed on as bounds.

By IC50 is commonly meant the concentration that inhibits the measured activity by half.

The first test concerns Daudi cells. In words: Cell proliferation experiment, Daudi. To be noted: Daudi cells; read-out: Inhibitory activity IC50 on Daudi. In kind it is cell-based, human. The method, boiled down: (§1)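 Viability read by Alamar blue. 72 h treatment, 5-fold dilution series, duplicates; log-phase cells in 96-well plates; IC50 by curve fit.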
In the case of `CNC(=O)c1ccccc1Nc1nc(Nc2ccc(N3CCN(C(=O)N[C@H]4CC[C@@H](NCCOCCC#Cc5cccc6c5CN(C5CCC(=O)NC5=O)C6=O)CC4)CC3)cc2)ncc1Cl` (stereo partly drawn) [UB-181078], the IC50 lay in the range of 0.01 to 0.1 µM.

As for `CNC(=O)c1ccccc1Nc1nc(Nc2ccc(N3CCN(C(=O)N[C@H]4CC[C@@H](NCCOCCC#Cc5ccc6c(c5)CN(C5CCC(=O)NC5=O)C6=O)CC4)CC3)cc2)ncc1Cl` (stereo partly drawn) [UB-181115], the half-maximal inhibitory concentration (IC50) is 0.01 to 0.1 µM.

As for `CNC(=O)c1ccccc1Nc1nc(Nc2ccc(N3CCN(C(=O)N[C@H]4CC[C@@H](NCCOCCC#Cc5cccc6c5CN(C5CCC(=O)NC5=O)C6=O)CC4)CC3)cc2)ncc1Cl` (stereo partly drawn) [UB-181121], the IC50 is 0.1 to 1 µM.

Staying with this test, now noted: Homo sapiens, Daudi, Daudi cells; read-out: Inhibitory activity IC50 on Daudi.
Consider `CNC(=O)c1ccccc1Nc1nc(Nc2ccc(N3CCN(C(=O)NCCCCOCCCCNCC(=O)Nc4ccc5c(c4)CN(C4CCC(=O)NC4=O)C5=O)CC3)cc2)ncc1Cl` (stereo not drawn) [UB-181049], for which the IC50 lay within 0.01 to 0.1 µM.

On to `CNC(=O)c1ccccc1Nc1nc(Nc2ccc(N3CCN(C(=O)NCCNCCC(=O)Nc4ccc5c(c4)CN(C4CCC(=O)NC4=O)C5=O)CC3)cc2)ncc1Cl` (stereo not drawn) [UB-181054], for which the IC50 fell in the range of 0.01 to 0.1 µM.

For `CNC(=O)c1ccccc1Nc1nc(Nc2ccc(N3CCN(C(=O)NCCCOCC(O)COCC#Cc4ccc5c(c4)CN(C4CCC(=O)NC4=O)C5=O)CC3)cc2)ncc1Cl` (stereo not drawn) [UB-181076], the IC50 fell in the range of 0.01 to 0.1 µM.

The test system of another test is PC-3. Kind of test: Cell proliferation experiment, PC-3. To be noted: Homo sapiens, PC-3, PC-3 cells; read-out: Inhibitory activity IC50 on PC-3. Format: cell-based, human. In short, it runs like this:
as §1
Take `CNC(=O)c1ccccc1Nc1nc(Nc2ccc(N3CCN(C(=O)NCCCCOCCCCNCC(=O)Nc4ccc5c(c4)CN(C4CCC(=O)NC4=O)C5=O)CC3)cc2)ncc1Cl` (stereo not drawn) [UB-181049]: the IC50 lay in the range of 0.1 to 1 µM.

Take `CNC(=O)c1ccccc1Nc1nc(Nc2ccc(N3CCN(C(=O)NCCNCCC(=O)Nc4ccc5c(c4)CN(C4CCC(=O)NC4=O)C5=O)CC3)cc2)ncc1Cl` (stereo not drawn) [UB-181054]: the concentration for half-maximal inhibition (IC50) is above 1 µM.

For `CNC(=O)c1ccccc1Nc1nc(Nc2ccc(N3CCN(C(=O)NCCCOCC(O)COCC#Cc4ccc5c(c4)CN(C4CCC(=O)NC4=O)C5=O)CC3)cc2)ncc1Cl` (stereo not drawn) [UB-181076], the IC50 is above 1 µM.

The test is the same for the next values; noted with them: PC-3 cells; read-out: Inhibitory activity IC50 on PC-3.
As to `CNC(=O)c1ccccc1Nc1nc(Nc2ccc(N3CCN(C(=O)N[C@H]4CC[C@@H](NCCOCCC#Cc5cccc6c5CN(C5CCC(=O)NC5=O)C6=O)CC4)CC3)cc2)ncc1Cl` (stereo partly drawn) [UB-181078], the IC50 was 0.01 to 0.1 µM.

For the molecule `CNC(=O)c1ccccc1Nc1nc(Nc2ccc(N3CCN(C(=O)N[C@H]4CC[C@@H](NCCOCCC#Cc5ccc6c(c5)CN(C5CCC(=O)NC5=O)C6=O)CC4)CC3)cc2)ncc1Cl` (stereo partly drawn) [UB-181115], the IC50 fell in the range of 0.01 to 0.1 µM.

Consider `CNC(=O)c1ccccc1Nc1nc(Nc2ccc(N3CCN(C(=O)N[C@H]4CC[C@@H](NCCOCCC#Cc5cccc6c5CN(C5CCC(=O)NC5=O)C6=O)CC4)CC3)cc2)ncc1Cl` (stereo partly drawn) [UB-181121], for which the half-inhibitory concentration (IC50) lay within 0.1 to 1 µM.

A further test concerns MDA-MB-231 cells. In words: Cell proliferation experiment, MDA-MB-231. In kind it is cell-based, human. The conditions noted are these: Homo sapiens, MDA-MB-231, MDA-MB-231 cells; read-out: Inhibitory activity IC50 on MDA-MB-231. In short, it runs like this:
as §1
For the molecule `CNC(=O)c1ccccc1Nc1nc(Nc2ccc(N3CCN(C(=O)NCCCCOCCCCNCC(=O)Nc4ccc5c(c4)CN(C4CCC(=O)NC4=O)C5=O)CC3)cc2)ncc1Cl` (stereo not drawn) [UB-181049], the half-inhibitory concentration (IC50) is above 1 µM.

Turning to `CNC(=O)c1ccccc1Nc1nc(Nc2ccc(N3CCN(C(=O)NCCNCCC(=O)Nc4ccc5c(c4)CN(C4CCC(=O)NC4=O)C5=O)CC3)cc2)ncc1Cl` (stereo not drawn) [UB-181054], the half-inhibitory concentration (IC50) is above 1 µM.

As for `CNC(=O)c1ccccc1Nc1nc(Nc2ccc(N3CCN(C(=O)NCCCOCC(O)COCC#Cc4ccc5c(c4)CN(C4CCC(=O)NC4=O)C5=O)CC3)cc2)ncc1Cl` (stereo not drawn) [UB-181076], the 50% inhibitory concentration (IC50) was above 1 µM.

For `CNC(=O)c1ccccc1Nc1nc(Nc2ccc(N3CCN(C(=O)N[C@H]4CC[C@@H](NCCOCCC#Cc5cccc6c5CN(C5CCC(=O)NC5=O)C6=O)CC4)CC3)cc2)ncc1Cl` (stereo partly drawn) [UB-181078], the IC50 was 0.1 to 1 µM.

The test is the same for the next values; noted with them: MDA-MB-231 cells; read-out: Inhibitory activity IC50 on MDA-MB-231.
Consider `CNC(=O)c1ccccc1Nc1nc(Nc2ccc(N3CCN(C(=O)N[C@H]4CC[C@@H](NCCOCCC#Cc5ccc6c(c5)CN(C5CCC(=O)NC5=O)C6=O)CC4)CC3)cc2)ncc1Cl` (stereo partly drawn) [UB-181115], for which the half-inhibitory concentration (IC50) is 0.1 to 1 µM.

For the molecule `CNC(=O)c1ccccc1Nc1nc(Nc2ccc(N3CCN(C(=O)N[C@H]4CC[C@@H](NCCOCCC#Cc5cccc6c5CN(C5CCC(=O)NC5=O)C6=O)CC4)CC3)cc2)ncc1Cl` (stereo partly drawn) [UB-181121], the IC50 is 0.1 to 1 µM.

Another test deals with MV4;11 cells. Kind of test: Cell proliferation experiment (Alamar blue, 72 h), MV4;11. Format: cell-based, human. To be noted: Homo sapiens, MV4-11, MV4;11 cells; read-out: Inhibitory activity IC50 on MV4;11. The method, boiled down:
as §1
With `CNC(=O)c1ccccc1Nc1nc(Nc2ccc(N3CCN(C(=O)NCCCCOCCCCNCC(=O)Nc4ccc5c(c4)CN(C4CCC(=O)NC4=O)C5=O)CC3)cc2)ncc1Cl` (stereo not drawn) [UB-181049], the half-inhibitory concentration (IC50) was in the range of 0.01 to 0.1 µM.

In the case of `CNC(=O)c1ccccc1Nc1nc(Nc2ccc(N3CCN(C(=O)NCCNCCC(=O)Nc4ccc5c(c4)CN(C4CCC(=O)NC4=O)C5=O)CC3)cc2)ncc1Cl` (stereo not drawn) [UB-181054], the IC50 is below 0.01 µM.

For the molecule `CNC(=O)c1ccccc1Nc1nc(Nc2ccc(N3CCN(C(=O)NCCCOCC(O)COCC#Cc4ccc5c(c4)CN(C4CCC(=O)NC4=O)C5=O)CC3)cc2)ncc1Cl` (stereo not drawn) [UB-181076], the half-inhibitory concentration (IC50) was below 0.01 µM.

As for `CNC(=O)c1ccccc1Nc1nc(Nc2ccc(N3CCN(C(=O)N[C@H]4CC[C@@H](NCCOCCC#Cc5cccc6c5CN(C5CCC(=O)NC5=O)C6=O)CC4)CC3)cc2)ncc1Cl` (stereo partly drawn) [UB-181078], the half-maximal inhibitory concentration (IC50) was below 0.01 µM.

Staying with this test, now noted: MV4;11 cells; read-out: Inhibitory activity IC50 on MV4;11.
Consider `CNC(=O)c1ccccc1Nc1nc(Nc2ccc(N3CCN(C(=O)N[C@H]4CC[C@@H](NCCOCCC#Cc5ccc6c(c5)CN(C5CCC(=O)NC5=O)C6=O)CC4)CC3)cc2)ncc1Cl` (stereo partly drawn) [UB-181115], for which the concentration for half-maximal inhibition (IC50) was below 0.01 µM.

Regarding `CNC(=O)c1ccccc1Nc1nc(Nc2ccc(N3CCN(C(=O)N[C@H]4CC[C@@H](NCCOCCC#Cc5cccc6c5CN(C5CCC(=O)NC5=O)C6=O)CC4)CC3)cc2)ncc1Cl` (stereo partly drawn) [UB-181121], the concentration for half-maximal inhibition (IC50) was below 0.01 µM.

The next test relates to NCIH82 cells. In words: Cell proliferation experiment, NCI-H82. In kind it is cell-based, human. The conditions noted are these: Homo sapiens, NCI-H82, NCI-H82 cells; read-out: Inhibitory activity IC50 on NCI-H82. The method, boiled down: as §1
For the molecule `CNC(=O)c1ccccc1Nc1nc(Nc2ccc(N3CCN(C(=O)NCCCCOCCCCNCC(=O)Nc4ccc5c(c4)CN(C4CCC(=O)NC4=O)C5=O)CC3)cc2)ncc1Cl` (stereo not drawn) [UB-181049], the IC50 was in the range of 0.01 to 0.1 µM.

In the case of `CNC(=O)c1ccccc1Nc1nc(Nc2ccc(N3CCN(C(=O)NCCNCCC(=O)Nc4ccc5c(c4)CN(C4CCC(=O)NC4=O)C5=O)CC3)cc2)ncc1Cl` (stereo not drawn) [UB-181054], the IC50 is 0.1 to 1 µM.

Take `CNC(=O)c1ccccc1Nc1nc(Nc2ccc(N3CCN(C(=O)NCCCOCC(O)COCC#Cc4ccc5c(c4)CN(C4CCC(=O)NC4=O)C5=O)CC3)cc2)ncc1Cl` (stereo not drawn) [UB-181076]: the IC50 was in the range of 0.1 to 1 µM.

As for `CNC(=O)c1ccccc1Nc1nc(Nc2ccc(N3CCN(C(=O)N[C@H]4CC[C@@H](NCCOCCC#Cc5cccc6c5CN(C5CCC(=O)NC5=O)C6=O)CC4)CC3)cc2)ncc1Cl` (stereo partly drawn) [UB-181078], the IC50 was in the range of 0.1 to 1 µM.

The test is the same for the next values; noted with them: NCI-H82 cells; read-out: Inhibitory activity IC50 on NCI-H82.
Consider `CNC(=O)c1ccccc1Nc1nc(Nc2ccc(N3CCN(C(=O)N[C@H]4CC[C@@H](NCCOCCC#Cc5ccc6c(c5)CN(C5CCC(=O)NC5=O)C6=O)CC4)CC3)cc2)ncc1Cl` (stereo partly drawn) [UB-181115], for which the IC50 fell in the range of 0.01 to 0.1 µM.

In the case of `CNC(=O)c1ccccc1Nc1nc(Nc2ccc(N3CCN(C(=O)N[C@H]4CC[C@@H](NCCOCCC#Cc5cccc6c5CN(C5CCC(=O)NC5=O)C6=O)CC4)CC3)cc2)ncc1Cl` (stereo partly drawn) [UB-181121], the IC50 was in the range of 0.1 to 1 µM.
